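A five-concentration, 48-hour dose response in 96-well plates underlies each endpoint, interpolated linearly between surrounding concentrations. GI50 is the concentration that inhibits growth by half.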 Calls of active or inactive are those of the source. No stated cut-off is given here; in the data, active = GI50 up to about 1.1 µM and inactive = higher.
Experiments:
Test in all cases: NCI anticancer screen, dose series, 48 h
[1] = system: HOP-62
[2] = system: SF-268
[3] = system: SW-620
[4] = system: K562
[5] = system: SNB-19
[6] = system: HCT-116
[7] = system: 786-0
[8] = system: NCI-H460
[9] = system: MDA-N
[10] = system: SF-539
[11] = system: SK-MEL-28
[12] = system: LOX IMVI
[13] = system: U-251
[14] = system: SK-OV-3
[15] = system: RXF 393
[16] = system: OVCAR-3
[17] = system: COLO 205
[18] = system: SF-295
[19] = system: HCC 2998
[20] = system: NCI-H23

Row | SMILES | GI50 [1] | GI50 [2] | GI50 [3] | GI50 [4] | GI50 [5] | GI50 [6] | GI50 [7] | GI50 [8] | GI50 [9] | GI50 [10] | GI50 [11] | GI50 [12] | GI50 [13] | GI50 [14] | GI50 [15] | GI50 [16] | GI50 [17] | GI50 [18] | GI50 [19] | GI50 [20]
1 | COC1(OC)CCCCCCCCC(OC)(OC)CCCCCCCC1 | > 100 µM (inactive) | > 100 µM (inactive) | > 100 µM (inactive) | > 100 µM (inactive) | > 100 µM (inactive) | > 100 µM (inactive) | > 100 µM (inactive) | > 100 µM (inactive) | > 100 µM (inactive) | > 100 µM (inactive) | > 100 µM (inactive) | > 100 µM (inactive) | > 100 µM (inactive) | > 100 µM (inactive) | > 100 µM (inactive) | > 100 µM (inactive) | > 100 µM (inactive) | > 100 µM (inactive) | > 100 µM (inactive) | > 100 µM (inactive)
2 | C(=C\c1cccs1)/c1cccc(/C=C/c2cccs2)n1 | 83 µM (inactive) | 2.61 µM (inactive) | 24.8 µM (inactive) | > 100 µM (inactive) | 78.9 µM (inactive) | > 100 µM (inactive) | 35.3 µM (inactive) | 36.4 µM (inactive) | > 100 µM (inactive) | > 100 µM (inactive) | > 100 µM (inactive) | > 100 µM (inactive) | 54.7 µM (inactive) | > 100 µM (inactive) | > 100 µM (inactive) | 50.8 µM (inactive) | 32.1 µM (inactive) | > 100 µM (inactive) | 56.9 µM (inactive) | > 100 µM (inactive)
3 | CC(C)Sc1nncc(/C(N)=N/O)n1 | > 100 µM (inactive) | > 100 µM (inactive) | > 100 µM (inactive) | > 100 µM (inactive) | > 100 µM (inactive) | > 100 µM (inactive) | > 100 µM (inactive) | > 100 µM (inactive) | > 100 µM (inactive) | > 100 µM (inactive) | > 100 µM (inactive) | > 100 µM (inactive) | > 100 µM (inactive) | > 100 µM (inactive) | > 100 µM (inactive) | > 100 µM (inactive) | > 100 µM (inactive) | > 100 µM (inactive) | > 100 µM (inactive) | > 100 µM (inactive)
4 | Nc1nc(Cl)c(N)c(NCC2(CO)CC2)n1 | > 100 µM (inactive) | > 100 µM (inactive) | > 100 µM (inactive) | > 100 µM (inactive) | > 100 µM (inactive) | > 100 µM (inactive) | > 100 µM (inactive) | > 100 µM (inactive) | > 100 µM (inactive) | > 100 µM (inactive) | > 100 µM (inactive) | > 100 µM (inactive) | > 100 µM (inactive) | > 100 µM (inactive) | > 100 µM (inactive) | > 100 µM (inactive) | > 100 µM (inactive) | > 100 µM (inactive) | > 100 µM (inactive) | > 100 µM (inactive)
5 | O=C(/C=C/c1ccc(O)c(O)c1)c1ccc(O)cc1O [BUTEIN] | 17.4 µM (inactive) | 14.8 µM (inactive) | 8.53 µM (inactive) | 4.27 µM (inactive) | 18.5 µM (inactive) | 13 µM (inactive) | 12 µM (inactive) | 15.2 µM (inactive) | 6.14 µM (inactive) | 11.2 µM (inactive) | 14.5 µM (inactive) | 8.26 µM (inactive) | 9.25 µM (inactive) | 15.7 µM (inactive) | 12.2 µM (inactive) | 15.4 µM (inactive) | 14.5 µM (inactive) | 22.3 µM (inactive) | 17.1 µM (inactive) | 16.7 µM (inactive)
6 | CCOC(=O)/C(C(=O)Nc1cccc(Cl)c1)=C(/N)N1CCOCC1 | > 100 µM (inactive) | > 100 µM (inactive) | > 100 µM (inactive) | > 100 µM (inactive) | > 100 µM (inactive) | > 100 µM (inactive) | > 100 µM (inactive) | > 100 µM (inactive) | > 100 µM (inactive) | > 100 µM (inactive) | > 100 µM (inactive) | > 100 µM (inactive) | > 100 µM (inactive) | > 100 µM (inactive) | > 100 µM (inactive) | > 100 µM (inactive) | > 100 µM (inactive) | > 100 µM (inactive) | > 100 µM (inactive) | > 100 µM (inactive)
7 | COc1cccc(/C=C2\CCC(CN(C)C)C2=O)c1 (stereo not given) | 12.1 µM (inactive) | 6.07 µM (inactive) | 2.21 µM (inactive) | 1.1 µM (active) | 13.5 µM (inactive) | 3.07 µM (inactive) | 3.5 µM (inactive) | 16.2 µM (inactive) | 4.73 µM (inactive) | 13.9 µM (inactive) | 3.03 µM (inactive) | 1.73 µM (inactive) | 12.3 µM (inactive) | 15.7 µM (inactive) | 6.07 µM (inactive) | 5.04 µM (inactive) | 4.35 µM (inactive) | 16.6 µM (inactive) | 10.8 µM (inactive) | 8.09 µM (inactive)
8 | [O-][n+]1onc(-c2ccccc2)c1CN1CCOCC1 | > 100 µM (inactive) | > 100 µM (inactive) | > 100 µM (inactive) | 51.2 µM (inactive) | > 100 µM (inactive) | > 100 µM (inactive) | > 100 µM (inactive) | > 100 µM (inactive) | > 100 µM (inactive) | > 100 µM (inactive) | > 100 µM (inactive) | 71.8 µM (inactive) | > 100 µM (inactive) | > 100 µM (inactive) | > 100 µM (inactive) | 93.1 µM (inactive) | > 100 µM (inactive) | > 100 µM (inactive) | > 100 µM (inactive) | > 100 µM (inactive)

Reference: ChEMBL document CHEMBL1201862, “PubChem BioAssay data set” (2004)
